Experimental data published in publication PMC5387716, “Discovery of monocarbonyl curcumin-BTP hybrids as STAT3 inhibitors for drug-sensitive and drug-resistant breast cancer therapy” (Scientific Reports, 2017).
Read-outs that look alike come from different tables or passages of the source.

Tests used:
MCF-7 cells = assay: MTT anti-proliferative assay, MCF-7; assay type: cell-based, human; settings: read-out: MCF-7 IC50 ± SD
Protocol: (§1) All cell lines were purchased from Cell Bank of Shanghai Institute of Biochemistry and Cell Biology, Chinese Academy of Sciences (Shanghai, China). Human breast carcinoma cells (MCF-7 and MCF-7/DOX), breast epithelial cells (MCF-10A) and normal human liver cells (LO2) were maintained in RPMI-1640 medium. All cells were supplemented with 12% fetal bovine serum containing 50 μg/ml penicillin and 50 μg/ml streptomycin. Cells were grown to 80% confluency in a tissue culture flask at 37 °C in a humidified atmosphere containing 5% CO2, and then were trypsinized with 1 × Trypsin-Versene and split. The MCF-7/DOX cell line we used was established from its parental cell line MCF-7 cell by gradually increasing the concentration of DOX to which the cells were exposed in a stepwise manner over a period of 8 months. […] The cells were incubated in drug-free medium for at least 1 week before use.
(§2) Cells (MCF-7, MCF-7/DOX, MCF-10A, LO2) were seeded in 96-well plates at a density of 3,000–6,000 cells per well. The cells were incubated overnight (16 h) in a humidified 5% CO2 incubator at 37 °C. After media removal, different concentrations of test compounds were added in triplicate to the plates in 200 μL of fresh media and were incubated with the cells at 37 °C for 48 h. […] Cell viability was evaluated using 3-(4, 5-dimethylthiazolyl)-2,5-diphenyltetrazoliumbromide (MTT). The absorbance was read by an ELISA reader (SpectraMax Plus384, Molecular Devices, Sunnyvale, CA) at a test wavelength of 570 nm and a reference wavelength of 630 nm. Cell viability was calculated using the following formula: […]

MCF-7/DOX cells = assay: MTT anti-proliferative assay, MCF-7/DOX; assay type: cell-based, human; settings: for IC50: MTT, 48 h, read-out: MCF-7/DOX IC50 ± SD
Protocol: as §1, §2

MCF-10A cells = assay: MTT anti-proliferative assay, MCF-10A; assay type: cell-based, human; settings: Homo sapiens, MCF-10A, 48 h, normal breast epithelial cells, Table 2 prints no unit, μM
Protocol: as §1, §2

LO2 cells = assay: MTT anti-proliferative assay, LO2; assay type: cell-based; settings: Homo sapiens, L02, 48 h, normal human liver cells, Table 2 prints no unit, μM
Protocol: as §1, §2

| Compound | melting point [°C] | IC50 (MCF-7 cells; Homo sapiens, MCF7, 48 h) [nM] | IC50 (MCF-7/DOX cells; Homo sapiens, MCF7-DOX) [nM] | IC50 (MCF-7 cells; 48 h) [nM] | IC50 (MCF-7/DOX cells) [nM] | IC50 (MCF-10A cells) [µM] | resistance to DOX compared with parental DOX-sensitive cells (MCF-7/DOX cells; MCF-7/DOX vs MCF-7) [fold] | IC50 (LO2 cells) [µM] |
| --- | --- | --- | --- | --- | --- | --- | --- | --- |
| COc1cc(/C=C/C(=O)N2CCN(C(=O)C3=Cc4cc(Br)ccc4S3(=O)=O)CC2)cc(OC)c1O [Compound 6d, (E)-1-(4-(5-bromo-1,1-dioxidobenzo[b]thiophene-2-carbonyl)piperazin-1-yl)-3-(4-hydroxy-3,5-dimethoxyphenyl)prop-2-en-1-one] | 125 to 127 | 2250 ± 350 | 2270 ± 600 | – | – | – | – | – |
| O=C(/C=C/c1ccccn1)N1CCN(C(=O)C2=Cc3cc(Br)ccc3S2(=O)=O)CC1 [Compound 6f, (E)-1-(4-(5-bromo-1,1-dioxidobenzo[b]thiophene-2-carbonyl)piperazin-1-yl)-3-(pyridin-2-yl)prop-2-en-1-one] | 241 to 242 | 1080 ± 60 | 1890 ± 270 | – | – | – | – | – |
| O=C(/C=C/c1ccc(Cl)cc1)N1CCN(C(=O)C2=Cc3cc(Br)ccc3S2(=O)=O)CC1 [Compound 6h, (E)-1-(4-(5-bromo-1,1-dioxidobenzo[b]thiophene-2-carbonyl)piperazin-1-yl)-3-(4-chlorophenyl)prop-2-en-1-one] | 225 to 227 | 2020 ± 200 | 720 ± 130 | – | – | – | – | – |
| O=C(/C=C/c1ccc(C(F)(F)F)cc1)N1CCN(C(=O)C2=Cc3cc(Br)ccc3S2(=O)=O)CC1 [Compound 6i, (E)-1-(4-(5-bromo-1,1-dioxidobenzo[b]thiophene-2-carbonyl)piperazin-1-yl)-3-(4-(trifluoromethyl)phenyl)prop-2-en-1-one] | 245 to 247 | 670 ± 140 | 870 ± 120 | – | – | – | – | – |
| O=C(/C=C/c1ccc(F)cc1)N1CCN(C(=O)C2=Cc3cc(Br)ccc3S2(=O)=O)CC1 [Compound 6k, (E)-1-(4-(5-bromo-1,1-dioxidobenzo[b]thiophene-2-carbonyl)piperazin-1-yl)-3-(4-fluorophenyl)prop-2-en-1-one] | > 250 | 1500 ± 180 | 2440 ± 570 | – | – | – | – | – |
| COc1ccc(/C=C/C(=O)N2CCN(C(=O)C3=Cc4ccc(Br)cc4S3(=O)=O)CC2)cc1OC [Compound 6l, (E)-1-(4-(6-bromo-1,1-dioxidobenzo[b]thiophene-2-carbonyl)piperazin-1-yl)-3-(3,4-dimethoxyphenyl)prop-2-en-1-one] | 222 to 224 | 1250 ± 140 | 1770 ± 120 | – | – | – | – | – |
| COc1ccc(/C=C/C(=O)N2CCN(C(=O)C3=Cc4ccc(Br)cc4S3(=O)=O)CC2)cc1 [Compound 6m, (E)-1-(4-(6-bromo-1,1-dioxidobenzo[b]thiophene-2-carbonyl)piperazin-1-yl)-3-(4-methoxyphenyl)prop-2-en-1-one] | 220 to 222 | 990 ± 70 | 380 ± 10 | – | – | – | – | – |
| COc1cc(/C=C/C(=O)N2CCN(C(=O)C3=Cc4ccc(Br)cc4S3(=O)=O)CC2)cc(OC)c1OC [Compound 6n, (E)-1-(4-(6-bromo-1,1-dioxidobenzo[b]thiophene-2-carbonyl)piperazin-1-yl)-3-(3,4,5-trimethoxyphenyl)prop-2-en-1-one] | 81 to 85 | 2620 ± 130 | 2880 ± 570 | – | – | – | – | – |
| O=C(/C=C/c1ccc(Cl)cc1)N1CCN(C(=O)C2=Cc3ccc(Br)cc3S2(=O)=O)CC1 [Compound 6s, (E)-1-(4-(6-bromo-1,1-dioxidobenzo[b]thiophene-2-carbonyl)piperazin-1-yl)-3-(4-chlorophenyl)prop-2-en-1-one] | 225 to 227 | 1600 ± 90 | 2230 ± 160 | – | – | – | – | – |
| (E)-1-(4-(5-bromo-1,1-dioxidobenzo[b]thiophene-2-carbonyl)piperazin-1-yl)-3-(4-fluorophenyl)prop-2-en-1-one [Compound 6v] | – | – | – | 1450 ± 170 | 2140 ± 270 | – | – | – |
| (E)-1-(4-(5-bromo-1,1-dioxidobenzo[b]thiophene-2-carbonyl)piperazin-1-yl)-3-(4-hydroxy-3-methoxyphenyl)prop-2-en-1-one [Compound 6j] | – | – | – | 860 ± 90 | 1000 ± 760 | – | – | – |
| (E)-1-(4-(6-bromo-1,1-dioxidobenzo[b]thiophene-2-carbonyl)piperazin-1-yl)-3-(4-hydroxy-3-methoxyphenyl)prop-2-en-1-one [Compound 6u] | – | – | – | 1440 ± 110 | 550 ± 10 | – | – | – |

Second part, led by results:

| melting point [°C] | IC50 (MCF-7 cells; Homo sapiens, MCF7, 48 h) [nM] | IC50 (MCF-7/DOX cells; Homo sapiens, MCF7-DOX) [nM] | IC50 (MCF-7 cells; 48 h) [nM] | IC50 (MCF-7/DOX cells) [nM] | Compound | IC50 (MCF-10A cells) [µM] | resistance to DOX compared with parental DOX-sensitive cells (MCF-7/DOX cells; MCF-7/DOX vs MCF-7) [fold] | IC50 (LO2 cells) [µM] |
| --- | --- | --- | --- | --- | --- | --- | --- | --- |
| 244 to 246 | 710 ± 140 | 1820 ± 190 | – | – | COc1ccc(/C=C/C(=O)N2CCN(C(=O)C3=Cc4cc(Br)ccc4S3(=O)=O)CC2)cc1OC [Compound 6a, (E)-1-(4-(5-bromo-1,1-dioxidobenzo[b]thiophene-2-carbonyl)piperazin-1-yl)-3-(3,4-dimethoxyphenyl)prop-2-en-1-one] | – | – | – |
| 94 to 96 | 1230 ± 80 | 860 ± 130 | – | – | COc1cc(/C=C/C(=O)N2CCN(C(=O)C3=Cc4cc(Br)ccc4S3(=O)=O)CC2)cc(OC)c1OC [Compound 6c, (E)-1-(4-(5-bromo-1,1-dioxidobenzo[b]thiophene-2-carbonyl)piperazin-1-yl)-3-(3,4,5-trimethoxyphenyl)prop-2-en-1-one] | – | – | – |
| > 250 | 1180 ± 80 | 1080 ± 140 | – | – | O=C(/C=C/c1ccc([N+](=O)[O-])cc1)N1CCN(C(=O)C2=Cc3cc(Br)ccc3S2(=O)=O)CC1 [Compound 6e, (E)-1-(4-(5-bromo-1,1-dioxidobenzo[b]thiophene-2-carbonyl)piperazin-1-yl)-3-(4-nitrophenyl)prop-2-en-1-one] | – | – | – |
| > 250 | 2080 ± 60 | 1180 ± 70 | – | – | O=C(/C=C/c1ccc(Br)cc1)N1CCN(C(=O)C2=Cc3cc(Br)ccc3S2(=O)=O)CC1 [Compound 6g, (E)-1-(4-(5-bromo-1,1-dioxidobenzo[b]thiophene-2-carbonyl)piperazin-1-yl)-3-(4-bromophenyl)prop-2-en-1-one] | – | – | – |
| 112 to 114 | 2900 ± 360 | 9490 ± 2800 | – | – | COc1cc(/C=C/C(=O)N2CCN(C(=O)C3=Cc4ccc(Br)cc4S3(=O)=O)CC2)cc(OC)c1O [Compound 6o, (E)-1-(4-(6-bromo-1,1-dioxidobenzo[b]thiophene-2-carbonyl)piperazin-1-yl)-3-(4-hydroxy-3,5-dimethoxyphenyl)prop-2-en-1-one] | – | – | – |
| > 250 | 4000 ± 910 | 3780 ± 140 | – | – | O=C(/C=C/c1ccccc1O)N1CCN(C(=O)C2=Cc3ccc(Br)cc3S2(=O)=O)CC1 [Compound 6p, (E)-1-(4-(6-bromo-1,1-dioxidobenzo[b]thiophene-2-carbonyl)piperazin-1-yl)-3-(2-hydroxy)prop-2-en-1-one] | – | – | – |
| 97 to 99 | 1480 ± 190 | 4420 ± 170 | – | – | O=C(/C=C/c1ccccn1)N1CCN(C(=O)C2=Cc3ccc(Br)cc3S2(=O)=O)CC1 [Compound 6q, (E)-1-(4-(6-bromo-1,1-dioxidobenzo[b]thiophene-2-carbonyl)piperazin-1-yl)-3-(pyridin-2-yl)prop-2-en-1-one] | – | – | – |
| 215 to 217 | 1600 ± 130 | 2610 ± 820 | – | – | O=C(/C=C/c1ccc(Br)cc1)N1CCN(C(=O)C2=Cc3ccc(Br)cc3S2(=O)=O)CC1 [Compound 6r, (E)-1-(4-(6-bromo-1,1-dioxidobenzo[b]thiophene-2-carbonyl)piperazin-1-yl)-3-(4-bromophenyl)prop-2-en-1-one] | – | – | – |
| – | 980 ± 80 | 64700 ± 3800 | – | – | COc1cccc2c1C(=O)c1c(O)c3c(c(O)c1C2=O)C[C@@](O)(C(=O)CO)C[C@@H]3O[C@H]1C[C@H](N)[C@H](O)[C@H](C)O1 [DOX, doxorubicin, reference compound] | 0.98 ± 0.17 | 66.02 | 0.82 ± 0.12 |
| – | – | – | 3030 ± 220 | 2020 ± 340 | (E)-1-(4-(6-bromo-1,1-dioxidobenzo[b]thiophene-2-carbonyl)piperazin-1-yl)-3-(3-hydroxy-4-methoxyphenyl)prop-2-en-1-one [Compound 6t] | – | – | – |
